Melting point data for 90 compounds are collected here from a melting point compilation (Tetko et al.; mined from patent text by program, amines drawn as free bases though some values may be those of a salt).

Structures are written as SMILES. Where only a bound is given, the exact number is not on record here.

Broadly, the melting point is the temperature, or range, at which the solid turns liquid. `CCOC(=O)c1c[nH]c2cc(C(=O)NC3CCN(Cc4ccccc4)CC3)nn2c1=O` came in with a melting point of 264 to 266 °C.

`Cc1cc(C(C)(C)C)c(OP2OP(Oc3c(C(C)(C)C)cc(C)cc3C(C)(C)C)OP(Oc3c(C(C)(C)C)cc(C)cc3C(C)(C)C)O2)c(C(C)(C)C)c1` (stereo not given): the melting point lay within 176 to 181 °C.

In turn, `O=C(NNS(=O)(=O)c1ccccc1)c1nccc2ccccc12` returned a melting point of 198 to 200 °C.

On to `CN1Cc2ccc3c(c2C1)NC(=O)C3=NO`, for which the melting point was in the range of 242 to 244 °C.

`CCn1ncc2c(Cl)c3cc(S(C)(=O)=O)ccc3nc21` gave a melting point of 158 to 160 °C.

In turn, `O=C(O)/C=C/c1ccc(OCCN2CCCC2)cc1` displayed a melting point of 183 °C.

`CCCC1C(=O)N(S(C)(=O)=O)C2CCN(S(C)(=O)=O)C12` (stereo not given) had a melting point of 205 to 208 °C.

As to `Nn1ccn(C2CCc3ccccc3C2)c1=S` (stereo not given), the melting point was in the range of 187 to 189 °C.

In turn, `Cc1ccc(S(=O)(=O)OC2CCC(C)C2)cc1` (stereo not given) showed a melting point of less than 30 °C.

`O=C(O)C1CC(c2ccccc2)=NN1C(=O)CP(=O)(O)CCCCc1ccccc1` (single isomer, unassigned; (+)): the melting point was in the range of 166 to 169 °C.

`COc1ccc(C(=O)c2cccc(S(N)(=O)=O)c2)cc1` gave a melting point of 119 to 122 °C.

In turn, `CON1C(=O)CC2(CCN(CCNC(=O)c3cccnc3)CC2)C1=O` came in with a melting point of 112 to 119 °C.

Consider `N#Cc1c(-c2ccccc2)cc(-c2ccccc2)nc1N`, for which the melting point was 170 to 174 °C.

The compound `CC(CBr)(CBr)C(=O)O` yielded a melting point of 60 to 62 °C.

`O[C@@H]1CCC(c2ccccc2)(c2ccccc2)[C@@H]2CN(Cc3ccccc3)C[C@H]12` gave a melting point of 154 °C.

For `Cc1ccc(C(C)(C)C)c(SC2=C(O)CC(CCc3ccccc3)(c3ccc(OCCN4CCNCC4)cc3)OC2=O)c1` (stereo not given), the melting point was 175 °C.

On to `CN1CC(CCN2CCOCC2)N(C)c2nc3ccccc3n2C1=O` (stereo not given), for which the melting point is 149 to 152 °C.

Regarding `Cc1cccc(NC(=O)NCC(=O)N(CC(=O)OC(C)(C)C)c2ccccc2Oc2ccccc2)c1`, the melting point was 204 °C.

Regarding `CNS(=O)(=O)C1CN(C)c2cc(F)ccc2C1=O` (stereo not given), the melting point is 134 to 136 °C.

Compound `O=C(c1ccc(NC(=O)C(O)(C(F)F)C(F)F)cc1)c1ccccn1` yielded a melting point of 158 to 161 °C.

For the compound `CCOC(=O)c1cn(Cc2ccc(Oc3ccccc3)cc2)nc1OCc1ccc(OCc2nc(-c3ccccc3)oc2C)c(OC)c1`, the melting point lay in the range of 127 to 128 °C.

Take `CCCCCCCCCCCCn1c2cc(Cl)ccc2c2ccc(Cl)cc21`: the melting point was in the range of 70 to 71 °C.

Consider `CCOc1nc2c(nc1C(=O)Cl)c(C)nn2CC`, for which the melting point is 109 to 111 °C.

`CC(C)CN(C[C@H](O)COc1cccc2[nH]c3ccccc3c12)c1ccc(Oc2ccc(C(N)=O)cn2)cc1` registered a melting point of 126 to 142 °C.

Compound `COc1ccccc1CN[C@H]1CCCN(CCCc2ccccc2)[C@H]1c1ccccc1` (relative stereo) showed a melting point of 120 to 125 °C.

Regarding `CCN(CC)C(=O)c1cc(-c2ccc(OC)cc2)c2ccccc2c1`, the melting point was in the range of 147 to 149 °C.

Take `Cc1nnc2n1-c1ccc(NC(=O)NCCO)cc1C(c1ccccc1F)=NC2`: the melting point is 228 to 230 °C.

In turn, `CN=C1N(C)C(=O)CN1c1ccc(Cl)cc1` returned a melting point of 150 to 152 °C.

Regarding `CCN(C(=O)c1ccccc1C(=O)c1ccccc1)C(C)(C)CNS(=O)(=O)c1ccc(C)cc1`, the melting point lay within 157 to 160 °C.

In turn, `COC(=O)c1ccc2cc(OCc3cccc(COc4ccc5cc(C(=O)OC)ccc5c4)c3)ccc2c1` had a melting point of 177 to 178 °C.

For `CCOC(=O)c1cnc2c3ccccc3ccn2c1=N`, the melting point fell in the range of 197 to 199 °C.

With `N=C1SCCN1c1ccccc1[N+](=O)[O-]`, the melting point was 127 °C.

In turn, `CN1CC=C(c2c[nH]c3ccc([N+](=O)[O-])cc23)C(F)C1` (stereo not given) had a melting point of 94 to 96 °C.

`Cc1ccccc1OCC(=O)Nc1c(C)cccc1C(=O)O` registered a melting point of 133 to 136 °C.

As for `C=CCOc1ccc(C(C)=O)c(NC(C)=O)c1`, the melting point is 63 to 64 °C.

`CCOC(=O)c1c[nH]c2c(O)c(OC)ccc2c1=O` yielded a melting point of 233 to 236 °C.

Regarding `CN(c1cccc2cc(C(N)=O)[nH]c12)S(=O)(=O)c1ccccc1C(F)(F)F`, the melting point was 223 to 224 °C.

`CC(C)(C)c1cc(CC2CO2)cc(C(C)(C)C)c1O` (stereo not given) returned a melting point of 86 to 87 °C.

Take `COc1ccc2c(c1OCC#N)CCC=C2`: the melting point was 138 to 139 °C.

Consider `CCCc1cc(O)nc(-c2cccc(Oc3ccccc3Cl)n2)n1`, for which the melting point was 95.1 °C.

In turn, `Cc1cccc(Cl)c1N1Cc2cnc(Nc3ccccc3)nc2N(c2cccc(CCN)c2)C1=O` had a melting point of 192 °C.

Turning to `O=c1c(C2CCCC2)coc2cc(O)cc(Cl)c12`, the melting point lay within 282 to 284 °C.

`CCOP(C)(=O)COS(=O)(=O)c1ccccc1C(F)(F)F` (stereo not given) had a melting point of 91 to 92.5 °C.

In turn, `CC(=O)OC1CSC(Oc2ccc3cc[nH]c3c2)C(OC(C)=O)C1OC(C)=O` (stereo not given) showed a melting point of 172 to 175 °C.

`Oc1cnccc1CCCOc1cccnc1Oc1cccc(Br)c1` displayed a melting point of 116 to 118 °C.

For `CCCc1nc(C=Cc2ccccc2)c(C(=O)O)n1Cc1cc2c(cc1Cl)OCO2`, the melting point was 230 °C.

In the case of `COc1ccc2c(-c3sccc3C)noc2c1Cl`, the melting point lay within 154 to 156 °C.

Turning to `CCOC(=O)c1cc2c(=O)c3cc(C(C)CO)ccc3oc2nc1N` (stereo not given), the melting point fell in the range of 255 to 256 °C.

On to `CC1(C)CC(=O)c2cc(OCc3ccccc3)ccc2O1`, for which the melting point lay within 105 to 107 °C.

With `COC(=O)C=Cc1ccc(OC)c(OCc2nc(-c3ccccc3)oc2C)c1`, the melting point was in the range of 135 to 136 °C.

For the compound `Cn1nc(-c2cnc(N)nc2-c2ccccc2Br)ccc1=O`, the melting point is more than 250 °C.

`CC(C)OP(=O)(/C=C/CCn1cnc2c(N)ncnc21)OC(C)C` came in with a melting point of 121 to 122 °C.

As to `COc1ccc(S(=O)(=O)n2ccc3ccnc(-c4ccccc4)c32)cc1`, the melting point is 149 to 151 °C.

`N#Cc1cnn2c(-c3cccnc3)ccnc12` returned a melting point of 258 to 260 °C.

The compound `COC(OC)c1cnc(N2C(=O)c3ccccc3C2=O)c(C#N)n1` displayed a melting point of 115 to 116 °C.

`CC(C)OC(=O)Cn1c(=O)n(C)c(=O)n(-c2cc(N3C(=O)c4cccc(F)c4C3=O)c(F)cc2Cl)c1=O` registered a melting point of 119 to 125 °C.

`Cc1cncc(C)c1-c1c(C)cc(N=C(c2ccccc2)c2ccccc2)cc1C` displayed a melting point of 44 to 45 °C.

In turn, `O=C(Nc1ccncn1)Nc1cccc2c1C1CCCCN1C2=O` (stereo not given) yielded a melting point of 218 °C.

In the case of `COc1cc2c(cc1OC)CN(CC(O)c1ccc(N)cc1)CC2` (stereo not given), the melting point came out at 168 °C.

Consider `O=C(O)Cc1cc2c(c([N+](=O)[O-])c1)NC(C(F)(F)F)CC2` (stereo not given), for which the melting point was in the range of 177 to 178 °C.

`CSc1ccc(/C=C2/C(CCN(O)C(N)=O)=C(C)c3ccccc32)cc1` displayed a melting point of 120 to 122 °C.

Take `COCC(NC(C)C)c1c[nH]c2cccc(Oc3ccc(Cl)cc3)c12` (stereo not given): the melting point fell in the range of 149 to 150 °C.

Turning to `O=C(NCCCl)Nc1ccc2[nH]ccc2c1`, the melting point lay within 159 to 161 °C.

Compound `CCCn1c(=O)c2c(nc(/C=C/c3ccc(OCOC)c(OCOC)c3)n2C)n(CCC)c1=O` showed a melting point of 172 to 173 °C.

`COC(=O)N=c1[nH]c2ccccc2n1C1CCN(Cc2ccccc2)CC1` showed a melting point of 170 °C.

The compound `Cc1oc(-c2ccc(F)cc2)cc1C(=O)Nc1cccc(CSCC(=O)O)c1` registered a melting point of 198 to 199 °C.

`CCCCOC(=O)c1cc([N+](=O)[O-])c(Cl)c(S(N)(=O)=O)c1` showed a melting point of 140 to 141 °C.

`O=C1CCC(C(=O)c2ccccc2)N1` (stereo not given) came in with a melting point of 175 °C.

With `CC(C(N)=O)c1ccc2c(c1)Sc1ccccc1CC2=O` (stereo not given), the melting point is 178 to 179 °C.

`O=C(COc1ccc(Cl)cc1)C1(Cl)CC1` came in with a melting point of 78 °C.

Consider `C=COc1ccc(C(=O)c2ccccc2)cc1`, for which the melting point was 58 °C.

As for `CCOCc1nc2c(N)nc3ccccc3c2n1CC(C)(C)C(N)=O`, the melting point was in the range of 241 to 243 °C.

The compound `CCOCc1cc2c(N)cccc2cn1` showed a melting point of 95 °C.

Regarding `COC(=O)c1cscc1Nc1ccc(C(F)(F)F)cc1[N+](=O)[O-]`, the melting point stood at 175 °C.

Compound `Ic1sc2ccccc2c1Oc1ccc(OCc2ccccc2)cc1` gave a melting point of 87 to 92 °C.

As for `CCOC(=O)c1cnn(-c2ccc(Cl)c(Cl)c2)c1C#N`, the melting point is 79 to 81 °C.

The compound `CC(C)(C)OC(=O)Nc1cc(Cl)c(I)cc1[N+](=O)[O-]` returned a melting point of 82 to 84 °C.

Compound `COCCOc1ccc(CN)cc1O` returned a melting point of 89 to 90 °C.

`Cc1nn(-c2c(Cl)cc(C(F)(F)F)cc2Cl)nc1COS(C)(=O)=O` registered a melting point of 126 to 128 °C.

In turn, `CNC(=O)c1ccccc1Nc1nc(Nc2ccc3c(c2)N(C)CCN(S(C)(=O)=O)C3)ncc1Cl` came in with a melting point of 200 to 207 °C.

The compound `CCOC(=O)C(OCc1ccc(Cl)cc1)(C(F)(F)F)C(F)(F)F` returned a melting point of 33 °C.

`COC(=O)CCC(C)C1CCC2C3C(C(C)=O)CC4CC(C(C)=O)CCC4(C)C3C=CC12C` (stereo not given) gave a melting point of 137 to 139 °C.

`CC#CCOc1cc(-c2ccccc2)ncn1` displayed a melting point of 59.6 °C.

`CC(=O)NN1CC(C)=NNC1=O` gave a melting point of 197 to 199 °C.

For `CNc1cc(N2CCOCC2)nc(N2CCOCC2)n1`, the melting point lay within 127 to 128 °C.

`Cc1ccc(C)c(C2C(=O)Oc3c2cc(C(C)(C)C)cc3C(C)(C)C)c1` (stereo not given) gave a melting point of 93 to 97 °C.

For `CSc1ccc2c(O)c(CS(C)(=O)=O)cnc2c1`, the melting point lay in the range of 290 to 292 °C.

`Cn1nc(SC2c3cc(C#N)ccc3CC(C)(C)C2O)ccc1=O` (stereo not given) yielded a melting point of 149 to 151 °C.

`N=C(N)Nc1nc(CSCCNC2=NS(=O)(=O)N=C2N)cs1` gave a melting point of 134 to 149 °C.

`CCCN(CCCc1c[nH]c2ccc(F)cc12)C1COc2c(F)ccc(C(N)=O)c2C1` (stereo not given) displayed a melting point of 125 °C.
